The values below come from patent US11834454B2, “Alkynylphenylbenzamide compounds and applications thereof” (SHENZHEN NEWDEL BIOTECH CO., LTD., priority 2021, dated 2023).

The target in one assay is T1, BaF3-ETV6-NTRK3 (Homo sapiens, UniProt Q16288).
T1 construct: fused on or other part: P41212 (Transcription factor ETV6)
As to the kind of experiment: Cell proliferation inhibition, Ba/F3-TRKs stable strain (CCK-8). The assay is classed as cell-based, mouse. The following applies: 72 hours, read-out: cell viability IC50 ETV6-NTRK3. An excerpt:
(§1) The BaF3 cells (mouse pre-B cells) used in this experiment were purchased from the Japanese Cell Bank. All of the monoclonal stable strains, BaF3-CD74-NTRK1, BaF3-ETV6-NTRK2 and BaF3-ETV6-NTRK3 were constructed by our laboratory, and were identified by experiments such as positive control, protein expression and gene sequencing.
(§2) The brief steps of stable strain construction were as follows: constructed pCDNA3.1(+) plasmid vector carrying genes such as CD74-NTRK1, ETV6-NTRK2, ETV6-NTRK3; the plasmid was electroporated into Ba/F3 cells using Amaxa® Cell Line Nucleofector® Kit V; 48 hours after electroporation, geneticin (G418) with a final concentration of 1000 μg/mL was added to screen for two weeks, and the interleukin 3 (IL3) was removed to continue screening to obtain polyclonal stable strains; and then single clones were selected by limiting dilution method; the stable strains were then identified by the positive drugs, Western Blot (WB), and gene sequencing; the correct monoclonal through identification can be used to study the cell proliferation inhibitory activity of the inhibitors.
(§3) Cell proliferation inhibitory activity study: The cells in logarithmic growth phase were seeded into 96-well plates at 8000-12000 cells/well, and the inhibitors at different concentrations of (0-10 μM) were added the next day, and the culture was continued for 72 hours; then 10 μL of Cell Counting Kit-8 Cell Counting Reagent (CCK-8 Reagent) was added to each well, and continued to incubate for 1-3 hours; then its absorbance at 450 nm and 650 nm were measured with a super microplate reader. The median inhibitory concentration (IC50) was calculated using medical graphing software (GraphPad Prism 8.0.0).

The target in the next assay is T2, BaF3-CD74-NTRK1 (Homo sapiens, UniProt P04629).
T2 construct: fused on or other part: P04233 (HLA class II histocompatibility antigen gamma chain)
Described as above. The format is cell-based, mouse. The following applies: 72 hours, read-out: cell viability IC50 CD74-NTRK1.
From the text: as §1, §2, §3

The next assay addresses T3, BaF3-ETV6-NTRK3-F617L (Homo sapiens, UniProt Q16288, F617L).
T3 construct: constructed pCDNA3.1(+) plasmid vector carrying genes such as; fused on or other part: P41212 (Transcription factor ETV6)
As to the kind of experiment: Drug-resistant cell proliferation inhibition (CCK-8). The format is cell-based, mouse. The following applies: 72 hours, read-out: drug-resistant cell viability IC50.
From the text: (§4) BaF3 cells (mouse pre-B cells) used in this experiment were purchased from Japan Cell Bank, all of the monoclonal stable strains, BaF3-CD74-NTRK1-G667C, BaF3-CD74-NTRK1-F589L, BaF3-CD74-NTRK1-G595R, BaF3-CD74-NTRK1-G667A, BaF3-CD74-NTRK1-V573M, BaF3-ETV6-NTRK2-G639R, BaF3-ETV6-NTRK2-G709C, BaF3-ETV6-NTRK2-V617M, BaF3-ETV6-NTRK2-F633L, BaF3-ETV6-NTRK3-G696C, BaF3-ETV6-NTRK3-G696A, BaF3-ETV6-NTRK3-G623R, BaF3-ETV6-NTRK3-G623E, BaF3-ETV6-NTRK3-F617L and BaF3-ETV6-NTRK3-V601M were constructed by our laboratory, and were identified by experiments such as positive control, protein expression and gene sequencing.
(§5) The brief steps for stable strains construction were as follows: constructed pCDNA3.1(+) plasmid vector carrying genes such as BaF3-CD74-NTRK1-G667C, BaF3-CD74-NTRK1-F589L, BaF3-CD74-NTRK1-G595R, BaF3-CD74-NTRK1-G667A, BaF3-CD74-NTRK1-V573M, BaF3-ETV6-NTRK2-G639R, BaF3-ETV6-NTRK2-G709C, BaF3-ETV6-NTRK2-V617M, BaF3-ETV6-NTRK2-F633L, BaF3-ETV6-NTRK3-G696C, BaF3-ETV6-NTRK3-G696A, BaF3-ETV6-NTRK3-G623R, BaF3-ETV6-NTRK3-G623E, BaF3-ETV6-NTRK3-F617L and BaF3-ETV6-NTRK3-V601M; the plasmid was electroporated into Ba/F3 cells using Amaxa® Cell Line Nucleofector® Kit V; 48 hours after of electroporation, geneticin (G418) with a final concentration of 1000 μg/mL was added to screen for two weeks, and the interleukin 3 (IL3) was removed to continue screening to obtain polyclonal stable strains; and then single clones were selected by limiting dilution method; the stable strains were then identified by the positive drugs, Western Blot (WB), and gene sequencing; the correct monoclonal through identification can be used to study the cell proliferation inhibitory activity of the inhibitors.
as §3

The next assay deals with T4, BaF3-CD74-NTRK1-G595R (Homo sapiens, UniProt P04629, G595R).
T4 construct: constructed pCDNA3.1(+) plasmid vector carrying genes such as; fused on or other part: P04233 (HLA class II histocompatibility antigen gamma chain)
The assay is described as above. The following applies: 72 hours, read-out: drug-resistant cell viability IC50. The format is cell-based, mouse.
From the text: as §4, §5, §3

Another assay deals with T5, BaF3-ETV6-NTRK3-G623E (Homo sapiens, UniProt Q16288, G623E).
T5 construct: constructed pCDNA3.1(+) plasmid vector carrying genes such as; fused on or other part: P41212 (Transcription factor ETV6)
The assay is described as above. As to conditions: 72 hours, read-out: drug-resistant cell viability IC50. The format is cell-based, mouse.
From the text: as §4, §5, §3

For the next assay, the target named is T6, BaF3-CD74-NTRK1-V573M (Homo sapiens, UniProt P04629, V573M).
T6 construct: constructed pCDNA3.1(+) plasmid vector carrying genes such as BaF3-CD74-NTRK1-G667C; fused on or other part: P04233 (HLA class II histocompatibility antigen gamma chain)
The description is as above. The format is cell-based, mouse. The following applies: 72 hours, read-out: drug-resistant cell viability IC50.
From the text: as §4, §5, §3

The next assay addresses T7, TRKC (Homo sapiens, UniProt Q16288).
T7 construct: purchased American Life Technologies PV3617
As to the kind of experiment: Z'-LYTE kinase activity detection, TRKC. The format is biochemical.

A further assay concerns the target T8, BaF3-ETV6-NTRK2 (Homo sapiens, UniProt Q16620).
T8 construct: fused on or other part: P41212 (Transcription factor ETV6)
As to the kind of experiment: Cell proliferation inhibition, Ba/F3-TRKs stable strain (CCK-8). The format is cell-based, mouse. As to conditions: 72 hours, read-out: cell viability IC50 ETV6-NTRK2.
From the text: as §1, §2, §3

A further assay deals with T9, TRKB (Homo sapiens, UniProt Q16620).
T9 construct: purchased American Life Technologies PV3616
Kind of assay: Z'-LYTE kinase activity detection, TRKB. The assay is classed as biochemical.

The next assay concerns the target T10, BaF3-ETV6-NTRK2-G639R (Homo sapiens, UniProt Q16620, G623R).
T10 construct: constructed pCDNA3.1(+) plasmid vector carrying genes such as; fused on or other part: P41212 (Transcription factor ETV6)
Kind of assay: Drug-resistant cell proliferation inhibition (CCK-8). As to conditions: 72 hours, read-out: drug-resistant cell viability IC50. The format is cell-based, mouse.
From the text: as §4, §5, §3

For another assay, the target named is T11, BaF3-ETV6-NTRK2-F633L (Homo sapiens, UniProt Q16620, F617L).
T11 construct: constructed pCDNA3.1(+) plasmid vector carrying genes such as; fused on or other part: P41212 (Transcription factor ETV6)
The description is as above. The format is cell-based, mouse. The following applies: 72 hours, read-out: drug-resistant cell viability IC50.
From the text: as §4, §5, §3

The next assay addresses T12, BaF3-ETV6-NTRK2-V617M (Homo sapiens, UniProt Q16620, V601M).
T12 construct: constructed pCDNA3.1(+) plasmid vector carrying genes such as; fused on or other part: P41212 (Transcription factor ETV6)
The description is as above. As to conditions: 72 hours, read-out: drug-resistant cell viability IC50. The assay is classed as cell-based, mouse.
From the text: as §4, §5, §3

T7 sequence (Q16288 32-839): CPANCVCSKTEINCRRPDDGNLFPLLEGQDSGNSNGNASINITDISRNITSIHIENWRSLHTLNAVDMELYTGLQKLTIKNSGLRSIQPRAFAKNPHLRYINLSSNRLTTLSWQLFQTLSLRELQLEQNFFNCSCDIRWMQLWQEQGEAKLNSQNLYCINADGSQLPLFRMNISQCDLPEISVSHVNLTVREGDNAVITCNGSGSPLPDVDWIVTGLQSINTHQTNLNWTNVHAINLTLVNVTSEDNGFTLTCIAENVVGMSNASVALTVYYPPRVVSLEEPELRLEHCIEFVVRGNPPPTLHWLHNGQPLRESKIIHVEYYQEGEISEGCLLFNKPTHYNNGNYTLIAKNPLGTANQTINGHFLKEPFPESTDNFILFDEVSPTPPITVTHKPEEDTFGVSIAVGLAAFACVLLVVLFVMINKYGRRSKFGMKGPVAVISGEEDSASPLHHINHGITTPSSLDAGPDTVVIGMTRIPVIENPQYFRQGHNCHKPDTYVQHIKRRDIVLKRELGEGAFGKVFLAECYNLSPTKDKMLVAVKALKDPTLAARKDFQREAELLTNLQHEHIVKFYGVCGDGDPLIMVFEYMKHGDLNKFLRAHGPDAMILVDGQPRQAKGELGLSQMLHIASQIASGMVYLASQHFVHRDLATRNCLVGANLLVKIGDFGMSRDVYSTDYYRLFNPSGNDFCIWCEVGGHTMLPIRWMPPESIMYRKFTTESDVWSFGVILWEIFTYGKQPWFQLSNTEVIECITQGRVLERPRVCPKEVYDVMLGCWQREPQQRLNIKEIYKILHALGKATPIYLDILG
T6 sequence (P04629 510-796 V573M limits assumed): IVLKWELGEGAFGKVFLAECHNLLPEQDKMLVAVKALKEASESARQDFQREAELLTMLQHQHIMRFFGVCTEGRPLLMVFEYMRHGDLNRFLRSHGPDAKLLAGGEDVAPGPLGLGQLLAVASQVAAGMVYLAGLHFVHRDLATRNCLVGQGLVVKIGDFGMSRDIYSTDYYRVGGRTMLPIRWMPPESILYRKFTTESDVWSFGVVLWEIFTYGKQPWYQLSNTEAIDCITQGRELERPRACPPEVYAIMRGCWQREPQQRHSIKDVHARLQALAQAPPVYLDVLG
T8 sequence (Q16620 538-822 limits assumed): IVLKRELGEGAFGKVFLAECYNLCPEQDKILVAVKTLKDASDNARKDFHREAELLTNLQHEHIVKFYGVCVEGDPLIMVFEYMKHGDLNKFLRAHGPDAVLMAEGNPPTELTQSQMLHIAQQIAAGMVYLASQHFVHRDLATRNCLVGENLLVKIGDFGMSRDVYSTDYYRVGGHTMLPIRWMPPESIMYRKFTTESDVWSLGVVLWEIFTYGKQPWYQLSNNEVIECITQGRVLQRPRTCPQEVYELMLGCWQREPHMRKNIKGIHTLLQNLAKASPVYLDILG
T1 sequence (Q16288 whole entry, the tested form may be a part): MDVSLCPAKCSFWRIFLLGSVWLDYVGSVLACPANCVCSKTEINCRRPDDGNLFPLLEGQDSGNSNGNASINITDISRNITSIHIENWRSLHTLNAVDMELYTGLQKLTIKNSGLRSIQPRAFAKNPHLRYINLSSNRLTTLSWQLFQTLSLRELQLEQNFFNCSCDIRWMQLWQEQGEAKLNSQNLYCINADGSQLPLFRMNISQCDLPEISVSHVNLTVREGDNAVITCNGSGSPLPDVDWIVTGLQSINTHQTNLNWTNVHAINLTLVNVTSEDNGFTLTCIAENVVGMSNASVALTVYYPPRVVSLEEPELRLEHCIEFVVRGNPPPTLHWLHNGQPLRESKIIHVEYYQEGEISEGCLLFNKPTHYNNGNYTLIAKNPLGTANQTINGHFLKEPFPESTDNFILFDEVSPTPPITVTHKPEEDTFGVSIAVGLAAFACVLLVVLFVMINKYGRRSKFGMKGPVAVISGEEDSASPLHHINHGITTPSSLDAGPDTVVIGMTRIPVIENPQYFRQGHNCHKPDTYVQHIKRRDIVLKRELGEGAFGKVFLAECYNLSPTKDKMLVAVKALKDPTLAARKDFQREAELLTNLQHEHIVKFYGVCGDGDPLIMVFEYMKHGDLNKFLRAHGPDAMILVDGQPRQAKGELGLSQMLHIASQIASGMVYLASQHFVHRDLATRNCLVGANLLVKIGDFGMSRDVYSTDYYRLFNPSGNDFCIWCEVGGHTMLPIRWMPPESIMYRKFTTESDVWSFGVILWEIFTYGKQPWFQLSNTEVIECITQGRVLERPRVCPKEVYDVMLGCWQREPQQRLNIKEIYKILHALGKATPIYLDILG
T3 sequence (Q16288 whole entry F617L, the tested form may be a part): as the sequence (Q16288 whole entry, the tested form may be a part) above, with F617L counted along it
T4 sequence (P04629 510-796 G595R limits assumed): as the sequence (P04629 510-796 V573M limits assumed) above, with M64V, G86R counted along it
T10 sequence (Q16620 538-822 G623R limits assumed): as the sequence (Q16620 538-822 limits assumed) above, with G86R counted along it
T12 sequence (Q16620 538-822 V601M limits assumed): as the sequence (Q16620 538-822 limits assumed) above, with V64M counted along it
T5 sequence (Q16288 whole entry G623E, the tested form may be a part): as the sequence (Q16288 whole entry, the tested form may be a part) above, with G623E counted along it
T11 sequence (Q16620 538-822 F617L limits assumed): as the sequence (Q16620 538-822 limits assumed) above, with F80L counted along it
T2 sequence (P04629 510-796 limits assumed): as the sequence (P04629 510-796 V573M limits assumed) above, with M64V counted along it
T9 sequence (Q16620 32-822): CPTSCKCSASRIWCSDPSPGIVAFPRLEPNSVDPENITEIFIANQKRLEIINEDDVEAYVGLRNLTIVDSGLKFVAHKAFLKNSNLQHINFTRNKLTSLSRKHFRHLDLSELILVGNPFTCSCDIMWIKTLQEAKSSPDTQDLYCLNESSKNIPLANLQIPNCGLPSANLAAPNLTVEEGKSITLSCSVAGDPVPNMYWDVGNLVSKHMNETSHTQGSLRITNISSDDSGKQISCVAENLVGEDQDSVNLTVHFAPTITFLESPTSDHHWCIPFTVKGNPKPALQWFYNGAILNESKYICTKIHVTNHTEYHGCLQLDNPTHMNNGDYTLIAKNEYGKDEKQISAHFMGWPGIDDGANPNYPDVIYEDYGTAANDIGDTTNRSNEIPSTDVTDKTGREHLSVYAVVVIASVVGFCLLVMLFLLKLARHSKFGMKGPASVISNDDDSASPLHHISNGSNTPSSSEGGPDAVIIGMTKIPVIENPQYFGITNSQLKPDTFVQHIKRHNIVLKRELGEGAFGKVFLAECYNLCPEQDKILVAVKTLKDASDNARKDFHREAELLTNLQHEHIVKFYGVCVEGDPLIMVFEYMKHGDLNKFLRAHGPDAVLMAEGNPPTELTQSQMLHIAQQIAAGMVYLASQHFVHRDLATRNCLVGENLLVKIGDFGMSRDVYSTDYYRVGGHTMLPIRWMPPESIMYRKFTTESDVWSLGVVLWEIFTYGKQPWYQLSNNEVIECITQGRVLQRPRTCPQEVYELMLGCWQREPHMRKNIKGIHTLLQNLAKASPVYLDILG

For `Cc1c(C#Cc2cnc3ccc(N4CCC(O)CC4)nn23)cccc1C(=O)Nc1cc(Cl)cc(C(F)(F)F)c1` [XS3-55, N-(3-CHLORO-5-(TRIFLUOROMETHYL)PHENYL)-3-((6-(4-HYDROXYPIPERIDIN-1-YL)IMIDAZO[1,2-B]PYRIDAZINE-3-YL)ETHYNYL)-2-METHYLBENZAMIDE], the half-inhibitory concentration (IC50) was 10 to 100 nM on BaF3-ETV6-NTRK3; 10 to 100 nM on BaF3-CD74-NTRK1; 10 to 100 nM on BaF3-ETV6-NTRK3-F617L; more than 1000 nM at BaF3-CD74-NTRK1-G595R; less than 10 nM at BaF3-ETV6-NTRK3-G623E; 10 to 100 nM on BaF3-CD74-NTRK1-V573M. This compound also gave a half-inhibitory concentration (IC50) at TRKC of 10 to 100 nM.
For the compound `Cc1c(C#Cc2cnc3ccc(N4CCOCC4)nn23)cccc1C(=O)Nc1cc(CN2CCN(C)CC2)cc(C(F)(F)F)c1` [XS3-68, 2-METHYL-N-(3-((4-METHYLPIPERAZIN-1-YL)METHYL)-5-(TRIFLUOROMETHYL)PHENYL)-3-((6-METHYLENE) LINOIMIDAZO[1,2-B]PYRIDAZIN-3-YL)ETHYNYL)BENZAMIDE], the IC50 on BaF3-ETV6-NTRK3 is less than 10 nM; on BaF3-ETV6-NTRK2, 10 to 100 nM; on BaF3-CD74-NTRK1 it was less than 10 nM; against TRKB, less than 10 nM; on BaF3-ETV6-NTRK2-G639R, 10 to 100 nM; on BaF3-ETV6-NTRK3-F617L it was 10 to 100 nM. Further, the IC50 at BaF3-CD74-NTRK1-G595R was 100 to 1000 nM; at BaF3-ETV6-NTRK2-F633L, 100 to 1000 nM; on BaF3-ETV6-NTRK3-G623E, less than 10 nM; at BaF3-CD74-NTRK1-V573M it was 10 to 100 nM; at BaF3-ETV6-NTRK2-V617M, less than 10 nM; against TRKC, less than 10 nM.
As to `Cc1c(C#Cc2cnc3ccc(N4CCC(O)CC4)nn23)cccc1C(=O)Nc1cc(CN2CCN(C)CC2)cc(C(F)(F)F)c1` [XS3-81, 3-((6-(4-HYDROXYPIPERIDIN-1-YL)IMIDAZO[1,2-B]PYRIDAZIN-3-YL)ETHYNYL)-2-METHYL-N-(3-(((4-METHYLPIPERAZIN-1-YL)METHYL)-5-(TRIFLUOROMETHYL)PHENYL)BENZAMIDE], the IC50 at BaF3-ETV6-NTRK3 is less than 10 nM; on BaF3-ETV6-NTRK2, less than 10 nM; on BaF3-CD74-NTRK1, 10 to 100 nM; against TRKB, less than 10 nM; at BaF3-ETV6-NTRK2-G639R, 10 to 100 nM; at BaF3-ETV6-NTRK3-F617L it was 10 to 100 nM. In addition, the IC50 on BaF3-CD74-NTRK1-G595R was 100 to 1000 nM; on BaF3-ETV6-NTRK2-F633L, 100 to 1000 nM; on BaF3-ETV6-NTRK3-G623E it was less than 10 nM; at BaF3-CD74-NTRK1-V573M, less than 10 nM; at BaF3-ETV6-NTRK2-V617M it was less than 10 nM; against TRKC, less than 10 nM.
With `Cc1cn(-c2cc(NC(=O)c3cccc(C#Cc4cnc5ccc(N6CCC(O)CC6)nn45)c3C)cc(C(F)(F)F)c2)cn1` [XS3-87, 3-((6-(4-HYDROXYPIPERIDIN-1-YL)IMIDAZO[1,2-B]PYRIDAZIN-3-YL)ETHYNYL)-2-METHYL-N-(3-(4-METHYL-1H-IMIDAZOL-1-YL)-5-(TRIFLUOROMETHYL)PHENYL)BENZAMIDE], the 50% inhibitory concentration (IC50) at BaF3-ETV6-NTRK3 was less than 10 nM; at BaF3-ETV6-NTRK2, 10 to 100 nM; on BaF3-CD74-NTRK1 it was less than 10 nM; at TRKB, less than 10 nM; on BaF3-ETV6-NTRK2-G639R, 10 to 100 nM; on BaF3-ETV6-NTRK3-F617L, less than 10 nM. The IC50 on BaF3-CD74-NTRK1-G595R was 100 to 1000 nM; on BaF3-ETV6-NTRK2-F633L it was 10 to 100 nM; on BaF3-ETV6-NTRK3-G623E, less than 10 nM; at BaF3-CD74-NTRK1-V573M, less than 10 nM; at BaF3-ETV6-NTRK2-V617M, less than 10 nM; against TRKC it was less than 10 nM.

The term IC50 denotes the point on the concentration scale where inhibition reaches its midpoint.
